Results: patent publication US5807535A, “Metal complexes of hydroxyaryl containing aminocarboxylic acid chelating agents” (Australian Nuclear Science & Technology Organisation, priority 1992, dated 1998)

Tests used:
[1] = Biodistribution of 99mTc complexes in mice; format: in vivo, Balb/c mice
Summary of the method: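 Chelator (approx. 1 mg/ml final) labelled with 99mTc via excess stannous chloride at pH approx. 6, labelling efficacy checked by ITLC-SG. Complexes diluted to 15 μCi/100 μl in saline before dosing to mice.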

[2] = Serum stability of 166Dy/166Ho complex of (1); format: in vitro ADME; conditions: human serum, 37° C.
Method: The radiolabelling (1) is then incubated in human serum at 37° C. At various time intervals the aliquots are separated and monitored for UV absorbance and radioactivity. The data illustrated in FIG. 31 show the complex is stable for >46 hrs.

In the case of O=C(O)CN(CCN(CC(=O)O)CC(=O)Nc1ccccc1O)CC(=O)Nc1ccccc1O [Compound 1], the “biodistribution GIT” value ([1]; 1 min) was 3.82 % Injected dose, the biodistribution bladder ([1]; 1 min) was 0.12 % Injected dose and the biodistribution blood ([1]; 1 min) was 27.09 % Injected dose. The biodistribution bone ([1]; 1 min) was 5.34 % Injected dose, the biodistribution heart ([1]; 1 min) was 0.57 % Injected dose and the biodistribution kidney ([1]; 1 min) was 11.78 % Injected dose. The biodistribution liver ([1]; 1 min) was 12.07 % Injected dose, the biodistribution lungs ([1]; 1 min) was 1.54 % Injected dose and the biodistribution muscle ([1]; 1 min) was 23.48 % Injected dose. The biodistribution skin ([1]; 1 min) was 19.66 % Injected dose, the biodistribution spleen ([1]; 1 min) was 0.17 % Injected dose and the biodistribution stomach ([1]; 1 min) was 0.5 % Injected dose. For the same compound, the biodistribution tail ([1]; 1 min) was 2.42 % Injected dose, the biodistribution urine ([1]; 1 min) was 0 % Injected dose and the “biodistribution GIT” value ([1]; 3 min) was 6.06 % Injected dose. It also gave a biodistribution bladder ([1]; 3 min) of 0.63 % Injected dose, a biodistribution blood ([1]; 3 min) of 12.02 % Injected dose and a biodistribution bone ([1]; 3 min) of 3.1 % Injected dose. The biodistribution heart ([1]; 3 min) was 0.23 % Injected dose, the biodistribution kidney ([1]; 3 min) was 11.23 % Injected dose and the biodistribution liver ([1]; 3 min) was 12.83 % Injected dose. It also gave a biodistribution lungs ([1]; 3 min) of 0.98 % Injected dose, a biodistribution muscle ([1]; 3 min) of 13.18 % Injected dose and a biodistribution skin ([1]; 3 min) of 19.28 % Injected dose. For the same compound, the biodistribution spleen ([1]; 3 min) was 0.1 % Injected dose, the biodistribution stomach ([1]; 3 min) was 0.98 % Injected dose and the biodistribution tail ([1]; 3 min) was 1.58 % Injected dose. For the same compound, the biodistribution urine ([1]; 3 min) was 5.62 % Injected dose, the “biodistribution GIT” value ([1]; 5 min) was 4.77 % Injected dose and the biodistribution bladder ([1]; 5 min) was 0.68 % Injected dose. It also gave a biodistribution blood ([1]; 5 min) of 9.77 % Injected dose, a biodistribution bone ([1]; 5 min) of 2.88 % Injected dose and a biodistribution heart ([1]; 5 min) of 0.21 % Injected dose. It also gave a biodistribution kidney ([1]; 5 min) of 9.17 % Injected dose, a biodistribution liver ([1]; 5 min) of 11.82 % Injected dose and a biodistribution lungs ([1]; 5 min) of 0.77 % Injected dose. The biodistribution muscle ([1]; 5 min) was 9.81 % Injected dose, the biodistribution skin ([1]; 5 min) was 19.68 % Injected dose and the biodistribution spleen ([1]; 5 min) was 0.07 % Injected dose. For the same compound, the biodistribution stomach ([1]; 5 min) was 1.02 % Injected dose, the biodistribution tail ([1]; 5 min) was 3.76 % Injected dose and the biodistribution urine ([1]; 5 min) was 4.51 % Injected dose. The “biodistribution GIT” value ([1]; 10 min) was 12.35 % Injected dose, the biodistribution bladder ([1]; 10 min) was 1.96 % Injected dose and the biodistribution blood ([1]; 10 min) was 5.34 % Injected dose. It also gave a biodistribution bone ([1]; 10 min) of 5.06 % Injected dose, a biodistribution heart ([1]; 10 min) of 0.12 % Injected dose and a biodistribution kidney ([1]; 10 min) of 5.58 % Injected dose. For the same compound, the biodistribution liver ([1]; 10 min) was 5.96 % Injected dose, the biodistribution lungs ([1]; 10 min) was 0.48 % Injected dose and the biodistribution muscle ([1]; 10 min) was 16.44 % Injected dose. It also gave a biodistribution skin ([1]; 10 min) of 15.68 % Injected dose, a biodistribution spleen ([1]; 10 min) of 0.06 % Injected dose and a biodistribution stomach ([1]; 10 min) of 1.16 % Injected dose. For the same compound, the biodistribution tail ([1]; 10 min) was 2.07 % Injected dose, the biodistribution urine ([1]; 10 min) was 11.64 % Injected dose and the “biodistribution GIT” value ([1]; 30 min) was 20 % Injected dose. For the same compound, the biodistribution bladder ([1]; 30 min) was 1.23 % Injected dose, the biodistribution blood ([1]; 30 min) was 1.82 % Injected dose and the biodistribution bone ([1]; 30 min) was 1.12 % Injected dose. The biodistribution heart ([1]; 30 min) was 0.05 % Injected dose, the biodistribution kidney ([1]; 30 min) was 3.19 % Injected dose and the biodistribution liver ([1]; 30 min) was 3.09 % Injected dose. It also gave a biodistribution lungs ([1]; 30 min) of 0.2 % Injected dose, a biodistribution muscle ([1]; 30 min) of 4.98 % Injected dose and a biodistribution skin ([1]; 30 min) of 7.31 % Injected dose. The biodistribution spleen ([1]; 30 min) was 0.02 % Injected dose, the biodistribution stomach ([1]; 30 min) was 0.49 % Injected dose and the biodistribution tail ([1]; 30 min) was 1.53 % Injected dose. The biodistribution urine ([1]; 30 min) was 8.84 % Injected dose and the “serum stability (complex is stable for)” value [2] was greater than 46 h.
